These results are taken from ChEMBL document CHEMBL1145755, “Design, synthesis and biological activity of novel dimethyl-[2-[6-substituted-indol-1-yl]-ethyl]-amine as potent, selective, and orally-bioavailable 5-HT(1D) agonists” (Bioorg Med Chem Lett, 2003).

The term Ki denotes a measure of affinity in units of concentration, obtained from inhibition or displacement. Read a high Ki as weaker binding. As usually defined, the inhibition is how much of the control response was suppressed. The Cmax is the peak of the concentration-time curve. As a reminder, the EC50 is the concentration needed to bring the measured effect to its halfway point. One may read the bioavailability as the share of a dose that reaches the circulation, judged against a reference dose that is usually intravenous. In general, Vd refers to the apparent volume that relates the amount in the body to the concentration in plasma or blood. Low values mean confinement near the circulation, high ones extensive tissue distribution. As usually defined, the half-life is how long it takes for the measured level to halve. As a reminder, the clearance is the volume of plasma or blood freed of the substance per unit of time. A high value points to efficient removal.

Data set [1] deals with T1, 5-hydroxytryptamine receptor 1D (Homo sapiens, UniProt P28221). The experiment in a line: Displacement of [3H]5-HT from human 5-hydroxytryptamine 1D receptor expressed in Chinese hamster ovary cells (CHO cells). It is filed as cell-based. In general terms: Displacement assays read how much labelled ligand stays bound in the presence of the test substance.
T1 sequence (P28221 whole entry): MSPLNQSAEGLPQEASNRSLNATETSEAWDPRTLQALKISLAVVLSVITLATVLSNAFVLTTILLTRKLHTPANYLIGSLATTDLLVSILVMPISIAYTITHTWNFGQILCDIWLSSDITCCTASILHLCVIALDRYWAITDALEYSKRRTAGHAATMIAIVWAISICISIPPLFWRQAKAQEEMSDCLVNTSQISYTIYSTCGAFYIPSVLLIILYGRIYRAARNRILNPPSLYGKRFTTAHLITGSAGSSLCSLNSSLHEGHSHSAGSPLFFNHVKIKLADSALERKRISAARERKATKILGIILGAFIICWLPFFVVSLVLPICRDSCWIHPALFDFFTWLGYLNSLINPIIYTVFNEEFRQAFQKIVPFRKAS
For data set [2], the target named is T1, 5-hydroxytryptamine receptor 1D. Briefly: Selectivity of compound to human 5-HT1D receptor to that of human 5-HT1B receptor.
Data set [3] shares this target. The experiment in a line: Inhibition of [3H]5-HT binding to human 5-hydroxytryptamine 1D receptor expressed in CHO cells at 1 uM. It is filed as cell-based.
Data set [4] concerns the target D(1A) dopamine receptor (Homo sapiens) (UniProt P21728). Briefly: Inhibition of binding towards dopamine 1 receptor at 100 nM concentration.
Data set [5] addresses Muscarinic acetylcholine receptors; M1 & M2 (Homo sapiens) (UniProt P11229+P08172). The experiment in a line: Inhibition of binding towards muscarinic (M1+M2) receptor at 100 nM concentration. The format is protein assay.
A short description of data set [6]: Cmax in rat. The format is ADME, organism-based. As to conditions: in vivo.
Data set [7] deals with T1, 5-hydroxytryptamine receptor 1D. Briefly: Ability to inhibit forskolin-stimulated adenylate cyclase activity in Chinese hamster ovary (CHO) stable cell lines expressing human 5-hydroxytryptamine 1D receptor. It is filed as functional.
Data set [8] has the same target. Briefly: Inhibition of binding towards 5-hydroxytryptamine 1D receptor at 100 nM concentration.
Data set [9] addresses 5-hydroxytryptamine receptor 6 (Homo sapiens) (UniProt P50406). Briefly: Inhibition of binding towards 5-hydroxytryptamine 6 receptor at 100 nM concentration.
The nature of data set [10]: Oral bioavailability in rat. It is filed as ADME, organism-based. The following applies: in vivo.
Data set [11] concerns the target T2, 5-hydroxytryptamine receptor 2C (Homo sapiens) (UniProt P28335).
T2 sequence (whole entry): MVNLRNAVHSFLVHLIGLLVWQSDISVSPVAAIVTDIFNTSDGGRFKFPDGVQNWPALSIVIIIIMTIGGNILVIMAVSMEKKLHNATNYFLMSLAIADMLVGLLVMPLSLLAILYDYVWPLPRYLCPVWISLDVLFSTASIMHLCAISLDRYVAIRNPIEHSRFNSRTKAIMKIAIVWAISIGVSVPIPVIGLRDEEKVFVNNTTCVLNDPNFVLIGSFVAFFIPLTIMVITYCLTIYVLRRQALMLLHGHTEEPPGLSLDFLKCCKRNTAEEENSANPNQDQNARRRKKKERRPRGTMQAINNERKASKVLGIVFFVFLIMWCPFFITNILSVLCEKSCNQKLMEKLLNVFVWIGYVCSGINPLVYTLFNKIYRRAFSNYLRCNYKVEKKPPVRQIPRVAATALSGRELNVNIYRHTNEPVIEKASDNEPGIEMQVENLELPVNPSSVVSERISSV
Briefly: Inhibition of binding towards 5-hydroxytryptamine 2C receptor at 100 nM concentration.

Data set [12] has as its target D(3) dopamine receptor (Homo sapiens) (UniProt P35462). Briefly: Inhibition of binding towards dopamine 3 receptor at 100 nM concentration.
Data set [13] can be described thus: Compound distribution in rat tissues was determined. As to conditions: in vivo. It is filed as ADME, organism-based.
Data set [14] is filed under the species Rattus norvegicus. The experiment in a line: In vitro metabolic stability of compound after 30 min incubation in the presence of rat liver microsomes. It is filed as functional. For orientation: Microsomes from liver hold many membrane-bound enzymes, among them those of drug oxidation.
The species named for data set [15] is Homo sapiens. Briefly: In vitro metabolic stability of compound after 30 min incubation in the presence of human liver microsomes. It is filed as functional.
Data set [16] has as its target D(2) dopamine receptor (Homo sapiens) (UniProt P14416). The experiment in a line: Inhibition of binding towards dopamine 2 receptor at 100 nM concentration.
The target in data set [17] is T3, 5-hydroxytryptamine receptor 1A (Homo sapiens) (UniProt P08908).
T3 sequence (whole entry): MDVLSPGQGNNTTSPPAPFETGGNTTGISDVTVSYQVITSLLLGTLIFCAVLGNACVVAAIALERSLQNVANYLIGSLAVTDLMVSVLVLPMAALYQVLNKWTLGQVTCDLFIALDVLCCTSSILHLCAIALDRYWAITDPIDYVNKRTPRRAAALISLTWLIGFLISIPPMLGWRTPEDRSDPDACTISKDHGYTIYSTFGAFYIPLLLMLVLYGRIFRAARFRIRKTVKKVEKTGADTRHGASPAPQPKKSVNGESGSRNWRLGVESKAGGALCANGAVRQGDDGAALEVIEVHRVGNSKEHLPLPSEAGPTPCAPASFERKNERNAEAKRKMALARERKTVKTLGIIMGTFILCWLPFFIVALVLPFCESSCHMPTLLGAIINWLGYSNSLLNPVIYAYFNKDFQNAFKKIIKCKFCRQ
The experiment in a line: Inhibition of binding towards 5-hydroxytryptamine 1A receptor at 100 nM concentration.

In data set [18] the target is 5-hydroxytryptamine receptor 1B (Homo sapiens) (UniProt P28222). Briefly: Inhibition of binding towards 5-hydroxytryptamine 1B receptor at 100 nM concentration.
Chain of 5-hydroxytryptamine receptor 1B (Homo sapiens) (P28222 whole entry): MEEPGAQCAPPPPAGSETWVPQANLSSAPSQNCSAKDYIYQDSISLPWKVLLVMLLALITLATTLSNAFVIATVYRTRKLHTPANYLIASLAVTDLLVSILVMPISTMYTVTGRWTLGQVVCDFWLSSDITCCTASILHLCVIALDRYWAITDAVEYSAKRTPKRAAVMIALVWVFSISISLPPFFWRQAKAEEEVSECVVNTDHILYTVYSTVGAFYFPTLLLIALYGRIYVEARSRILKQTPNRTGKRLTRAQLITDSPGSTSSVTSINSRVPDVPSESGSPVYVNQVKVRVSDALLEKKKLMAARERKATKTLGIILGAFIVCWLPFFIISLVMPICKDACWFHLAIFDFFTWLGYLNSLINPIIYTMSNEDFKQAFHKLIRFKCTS
Data set [19] addresses 5-hydroxytryptamine receptor 2A (Homo sapiens) (UniProt P28223). Briefly: Inhibition of binding towards 5-hydroxytryptamine 2A receptor at 100 nM concentration.
The target in data set [20] is Adrenergic receptor alpha-1 (Homo sapiens) (UniProt P35348+P25100+P35368). The experiment in a line: Inhibition of binding towards Alpha-1 adrenergic receptor at 100 nM concentration. It is filed as protein assay.
Data set [21] addresses T4, D(4) dopamine receptor (Homo sapiens) (UniProt P21917).
T4 sequence (whole entry): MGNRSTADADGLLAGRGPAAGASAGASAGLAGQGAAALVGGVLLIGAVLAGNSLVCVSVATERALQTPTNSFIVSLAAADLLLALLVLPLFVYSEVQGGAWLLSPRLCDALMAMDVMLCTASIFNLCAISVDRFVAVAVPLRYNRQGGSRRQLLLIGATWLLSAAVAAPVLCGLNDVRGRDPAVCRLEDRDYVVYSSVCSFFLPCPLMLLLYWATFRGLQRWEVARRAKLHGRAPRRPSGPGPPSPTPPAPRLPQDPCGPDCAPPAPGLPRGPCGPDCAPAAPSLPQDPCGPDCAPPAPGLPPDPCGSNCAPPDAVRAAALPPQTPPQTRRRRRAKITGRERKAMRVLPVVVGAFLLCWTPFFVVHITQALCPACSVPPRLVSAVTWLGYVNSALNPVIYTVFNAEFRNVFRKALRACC
Briefly: Inhibition of binding towards dopamine 4 receptor at 100 nM concentration.

The target in data set [22] is 5-hydroxytryptamine receptor 7 (Homo sapiens) (UniProt P34969). The experiment in a line: Inhibition of binding towards 5-hydroxytryptamine 7 receptor at 100 nM concentration.
Chain of 5-hydroxytryptamine receptor 7 (Homo sapiens) (P34969 whole entry): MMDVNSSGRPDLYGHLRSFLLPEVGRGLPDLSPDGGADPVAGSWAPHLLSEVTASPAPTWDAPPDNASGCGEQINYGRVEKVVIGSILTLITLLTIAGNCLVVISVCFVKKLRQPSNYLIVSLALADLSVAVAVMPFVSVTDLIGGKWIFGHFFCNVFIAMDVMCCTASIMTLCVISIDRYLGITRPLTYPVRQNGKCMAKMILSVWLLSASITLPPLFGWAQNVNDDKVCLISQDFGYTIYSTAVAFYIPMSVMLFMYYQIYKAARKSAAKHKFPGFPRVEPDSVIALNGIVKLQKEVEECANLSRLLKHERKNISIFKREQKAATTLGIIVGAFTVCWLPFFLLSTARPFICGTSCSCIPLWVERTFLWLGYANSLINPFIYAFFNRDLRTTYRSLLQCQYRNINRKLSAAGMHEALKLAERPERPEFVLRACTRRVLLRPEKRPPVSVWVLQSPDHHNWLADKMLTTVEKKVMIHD
The target in data set [23] is D(1B) dopamine receptor (Homo sapiens) (UniProt P21918). The experiment in a line: Inhibition of binding towards dopamine 5 receptor at 100 nM concentration.
Chain of D(1B) dopamine receptor (Homo sapiens) (P21918 whole entry): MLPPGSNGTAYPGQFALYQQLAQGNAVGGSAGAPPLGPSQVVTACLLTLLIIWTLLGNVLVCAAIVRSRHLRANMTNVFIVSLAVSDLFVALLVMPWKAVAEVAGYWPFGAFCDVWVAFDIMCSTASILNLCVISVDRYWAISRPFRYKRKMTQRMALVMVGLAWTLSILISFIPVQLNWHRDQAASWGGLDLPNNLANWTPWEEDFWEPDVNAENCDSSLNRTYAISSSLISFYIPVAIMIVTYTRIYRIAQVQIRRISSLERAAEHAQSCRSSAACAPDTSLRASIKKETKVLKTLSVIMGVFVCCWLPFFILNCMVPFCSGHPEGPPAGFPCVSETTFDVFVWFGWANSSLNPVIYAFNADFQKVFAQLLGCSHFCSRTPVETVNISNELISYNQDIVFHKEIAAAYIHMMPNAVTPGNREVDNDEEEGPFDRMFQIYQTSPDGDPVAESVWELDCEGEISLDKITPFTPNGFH
A short description of data set [24]: Half period in rat after intravenous administration. It is filed as ADME, organism-based. The following applies: in vivo.
Data set [25] relates to Rattus norvegicus. Briefly: Area under curve was determined after peroral administration in rat. The format is ADME, organism-based. As to conditions: in vivo, po.
Data set [26] can be described thus: Plasma clearance was determined in rat. The format is ADME, organism-based.

Chain of D(2) dopamine receptor (Homo sapiens) (P14416 whole entry): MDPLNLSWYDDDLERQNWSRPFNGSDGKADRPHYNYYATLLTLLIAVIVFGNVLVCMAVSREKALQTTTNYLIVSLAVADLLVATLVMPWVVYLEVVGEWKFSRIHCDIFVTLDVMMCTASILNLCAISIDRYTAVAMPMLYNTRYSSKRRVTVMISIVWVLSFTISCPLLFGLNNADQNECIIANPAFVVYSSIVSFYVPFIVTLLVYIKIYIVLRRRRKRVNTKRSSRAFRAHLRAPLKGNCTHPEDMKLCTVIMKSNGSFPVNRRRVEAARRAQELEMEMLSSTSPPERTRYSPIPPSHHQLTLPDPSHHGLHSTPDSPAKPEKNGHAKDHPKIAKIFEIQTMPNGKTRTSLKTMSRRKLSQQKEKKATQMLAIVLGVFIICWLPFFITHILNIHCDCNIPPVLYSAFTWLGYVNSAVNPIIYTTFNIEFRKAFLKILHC
Chain of D(1A) dopamine receptor (Homo sapiens) (P21728 whole entry): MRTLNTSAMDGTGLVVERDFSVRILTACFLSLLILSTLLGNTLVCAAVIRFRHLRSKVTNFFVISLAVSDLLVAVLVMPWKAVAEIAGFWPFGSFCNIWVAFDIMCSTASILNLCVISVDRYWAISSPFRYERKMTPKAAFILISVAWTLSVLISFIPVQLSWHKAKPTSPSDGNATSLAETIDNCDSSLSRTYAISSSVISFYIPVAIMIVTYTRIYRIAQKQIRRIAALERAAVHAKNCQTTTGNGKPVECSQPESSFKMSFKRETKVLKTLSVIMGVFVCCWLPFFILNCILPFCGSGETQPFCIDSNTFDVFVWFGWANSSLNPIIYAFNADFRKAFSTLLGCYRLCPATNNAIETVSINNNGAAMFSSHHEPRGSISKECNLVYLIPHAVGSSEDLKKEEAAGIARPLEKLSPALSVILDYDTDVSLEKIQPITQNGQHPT
Chain of 5-hydroxytryptamine receptor 6 (Homo sapiens) (P50406 whole entry): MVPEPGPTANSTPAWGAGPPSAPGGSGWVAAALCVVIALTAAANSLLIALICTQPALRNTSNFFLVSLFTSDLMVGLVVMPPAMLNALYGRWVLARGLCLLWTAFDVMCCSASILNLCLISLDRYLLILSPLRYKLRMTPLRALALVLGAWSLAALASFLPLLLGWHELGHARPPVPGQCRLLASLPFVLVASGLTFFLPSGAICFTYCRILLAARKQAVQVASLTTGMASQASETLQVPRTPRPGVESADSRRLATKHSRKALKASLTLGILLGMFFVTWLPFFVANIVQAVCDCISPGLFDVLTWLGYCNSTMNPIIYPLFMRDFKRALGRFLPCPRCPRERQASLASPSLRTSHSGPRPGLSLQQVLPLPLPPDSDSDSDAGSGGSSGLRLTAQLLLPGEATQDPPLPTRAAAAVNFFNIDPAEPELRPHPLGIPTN
Chain of 5-hydroxytryptamine receptor 2A (Homo sapiens) (P28223 whole entry): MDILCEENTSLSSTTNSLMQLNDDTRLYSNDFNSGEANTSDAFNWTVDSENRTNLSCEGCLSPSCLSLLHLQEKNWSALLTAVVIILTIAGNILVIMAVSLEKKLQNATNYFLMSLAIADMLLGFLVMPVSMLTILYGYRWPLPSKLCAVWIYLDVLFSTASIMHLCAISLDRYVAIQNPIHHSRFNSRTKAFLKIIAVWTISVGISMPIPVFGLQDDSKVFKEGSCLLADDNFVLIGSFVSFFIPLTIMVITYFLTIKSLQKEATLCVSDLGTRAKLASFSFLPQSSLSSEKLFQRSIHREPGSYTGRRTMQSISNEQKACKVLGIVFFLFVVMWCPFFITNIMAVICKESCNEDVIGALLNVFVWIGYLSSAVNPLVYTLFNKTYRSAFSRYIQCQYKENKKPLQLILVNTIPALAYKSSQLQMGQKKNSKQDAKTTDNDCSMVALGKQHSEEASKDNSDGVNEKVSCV
Chain of D(3) dopamine receptor (Homo sapiens) (P35462 whole entry): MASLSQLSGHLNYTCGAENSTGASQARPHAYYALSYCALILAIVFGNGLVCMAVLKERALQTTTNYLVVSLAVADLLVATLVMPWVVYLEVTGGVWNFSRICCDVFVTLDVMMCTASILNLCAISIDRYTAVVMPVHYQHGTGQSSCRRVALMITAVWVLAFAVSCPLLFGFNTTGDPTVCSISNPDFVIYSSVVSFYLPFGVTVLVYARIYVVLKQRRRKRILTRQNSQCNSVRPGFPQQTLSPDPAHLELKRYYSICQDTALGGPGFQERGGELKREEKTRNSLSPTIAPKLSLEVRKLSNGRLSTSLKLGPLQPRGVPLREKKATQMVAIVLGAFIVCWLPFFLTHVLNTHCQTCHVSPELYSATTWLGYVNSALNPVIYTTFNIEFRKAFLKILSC

On to `CNC(=O)c1ccc2c(c1)CCO[C@H]2CCN1CCN(c2ccc(C(N)=O)cc2)CC1`, for which the Ki in [1] is 4.6 nM.

In turn, `CN(C)CCn1ccc2ccc(C3=CCOCC3)cc21` displayed a Ki in [1] of 32 nM. Moreover, the Selectivity in data set [2] is 28.

With `CN(C)CCn1ccc2ccc(C3=CCN(C)CC3)cc21`, the inhibition in data set [3] worked out at 84%.

`CN(C)CCn1ccc2ccc(N3CCOCC3)cc21` displayed an inhibition in data set [3] of 85%.

Molecule `CN(C)CCn1ccc2ccc(C3(O)CCN(C)CC3)cc21` had an inhibition in data set [3] of 44%.

In [3], `CN(C)CCn1ccc2ccc(C3CCN(C)CC3)cc21` came in with an inhibition of 74%.

`CN(C)CCn1ccc2ccc(N3CCSCC3)cc21`: the inhibition in [3] is 88%.

`CN(C)CCn1ccc2ccc(-c3ccc(C(F)(F)F)cc3)cc21`: the inhibition in data set [3] stood at 86%.

`CN(C)CCn1ccc2ccc(-c3cccnc3)cc21` yielded an inhibition in [3] of 98%. In addition, affinity in [1] was put at a Ki of 1.4 nM. In data set [2], this molecule showed a Selectivity of 17.

The molecule `CN(C)CCn1ccc2ccc(-c3ccc4ccccc4c3)cc21` yielded an inhibition in data set [3] of 79%. Besides, in data set [1], the Ki is 57 nM. Moreover, in [2], the Selectivity was 5.5.

Molecule `CN(C)CCn1ccc2ccc(C3CCOCC3)cc21` yielded an inhibitory constant (Ki) in [1] of 3.7 nM.

In the case of `CN(C)CCn1ccc2ccc(C3(O)CCOCC3)cc21`, in data set [1], the inhibitory constant (Ki) is 3.4 nM. This molecule also displayed a Selectivity in data set [2] of 48.

For `OC[C@H](NC1CCN(CCCc2c[nH]c3ccc(-n4cnnc4)cc23)CC1)c1ccc(F)cc1`, the Ki in [1] amounted to 0.9 nM.

In turn, `CN(C)CCn1ccc2ccc(-c3ccsc3)cc21` had an inhibition in [3] of 99%. This molecule also had an inhibition constant Ki in [1] of 7.3 nM. Besides, in data set [2], the Selectivity came to 22.

As for `CN(C)CCn1ccc2ccc(C3(O)CCSCC3)cc21`, the inhibition in data set [4] stood at 0%; in [5], 0%; in data set [8], 96%; in [9] it was 0%; in data set [11], 4%; in data set [3] it was 99%. Moreover, the inhibition amounted to 0% in data set [12]; 0% in [16]; 27% in data set [17]; 46% in data set [18]; 0% in [19]; 1% in [20]. Besides, the inhibition in data set [21] came out at 2%; in data set [22] it was 5%; in [23] it was 1%. The concentration in [6] peaked (Cmax) at 538 ng/mL. Besides, in data set [7], the midpoint of the response, the EC50, lay at 0.3 nM. Besides, the bioavailability in [10] came out at 51.1%. In [13], this molecule yielded a Vd of 8.61 L/kg. In addition, the values for the Remaining in data set [14] and in data set [15] were 79% and 70%, respectively. The affinity in data set [1], expressed as Ki, was 2 nM. Further, in [24], the half-life was 1.5 h. The AUC in data set [25] came out at 21265 ng·mL/kg. In data set [26], this molecule had a clearance of 74 mL/min/kg. This molecule also displayed a Selectivity in data set [2] of 57.

For the molecule `CN(C)CCn1ccc2ccc(C3CCSCC3)cc21`, the inhibition in data set [3] came out at 99%. Also, affinity in data set [1] was put at a Ki of 5.6 nM. The same molecule came in with a Selectivity in [2] of 48.

As for `CN(C)CCn1ccc2ccc(C3=CCSCC3)cc21`, the inhibition in data set [3] was found to be 95%. This molecule returned an inhibitory constant (Ki) in data set [1] of 22 nM. For the same molecule, the Selectivity in [2] was 7.4.
